US20240382629A1, “HETEROBIVALENT AND HOMOBIVALENT AGENTS TARGETING FIBROBLAST ACTIVATION PROTEIN ALPHA AND/OR PROSTATE-SPECIFIC MEMBRANE ANTIGEN” (The Johns Hopkins University, priority 2021, published 2024)
“And” between values parts separate entries of the source, which are not always exact repeats. Equal entries are not always repeated. Where two headings read alike, the source gives them in different places.

Tests used:
[1] = Biodistribution of representative compounds ([^18F]Sri-07-56, [^18F]Sri-07-52, [^18F]JHU1221823, [^18F]FAPI-74), tissue % ID/g with carrier or blocker; format: in vivo, mouse; conditions: for Bladder % ID/g / Blood % ID/g / Brain % ID/g / Fat % ID/g / Femur % ID/g / Heart % ID/g / Kidney % ID/g / Large intestine % ID/g / Liver % ID/g / Lung % ID/g / Muscle % ID/g / Pancreas % ID/g / Salivery gland % ID/g / Small intestine % ID/g / Spleen % ID/g / Stomach % ID/g / Tumor % ID/g: individual mice
Text: Biodistribution of Representative Compounds

[2] = Biodistribution of representative compounds (Example 13), % ID/g in tissues of tumor-bearing mice; format: in vivo, mouse; conditions: 60 min, 2 μCi per mouse

N#CC1CCCN1C(=O)CNC(=O)c1ccnc2ccc(OCCCNC(=O)CCc3cn(CCC(NC(=O)c4ccc([18F])nc4)C(=O)NCCCCC(NC(=O)NC(CC(=O)O)C(=O)O)C(=O)O)nn3)cc12 (stereo not drawn) [[^18F]Sri-07-52]
Bladder % ID/g Mean ([1]; 30 min, ~100 μCi per mouse): 1.98 % ID/g | Blood % ID/g Mean ([1]; 30 min, ~100 μCi per mouse): 10.03 % ID/g | Brain % ID/g Mean ([1]; 30 min, ~100 μCi per mouse): 0.21 % ID/g | Fat % ID/g Mean ([1]; 30 min, ~100 μCi per mouse): 0.50 % ID/g | Femur % ID/g Mean ([1]; 30 min, ~100 μCi per mouse): 2.53 % ID/g | Heart % ID/g Mean ([1]; 30 min, ~100 μCi per mouse): 4.58 % ID/g | Kidney % ID/g Mean ([1]; 30 min, ~100 μCi per mouse): 2.71 % ID/g | Large intestine % ID/g Mean ([1]; 30 min, ~100 μCi per mouse): 3.78 % ID/g | Liver % ID/g Mean ([1]; 30 min, ~100 μCi per mouse): 3.20 % ID/g | Lung % ID/g Mean ([1]; 30 min, ~100 μCi per mouse): 6.18 % ID/g | Muscle % ID/g Mean ([1]; 30 min, ~100 μCi per mouse): 2.09 % ID/g | Pancreas % ID/g Mean ([1]; 30 min, ~100 μCi per mouse): 5.86 % ID/g | Salivary gland % ID/g Mean ([1]; 30 min, ~100 μCi per mouse): 13.84 % ID/g | Small intestine % ID/g Mean ([1]; 30 min, ~100 μCi per mouse): 4.36 % ID/g | Spleen % ID/g Mean ([1]; 30 min, ~100 μCi per mouse): 2.03 % ID/g | Stomach % ID/g Mean ([1]; 30 min, ~100 μCi per mouse): 1.71 % ID/g | Tumor % ID/g Mean ([1]; 30 min, ~100 μCi per mouse): 4.99 % ID/g | Bladder % ID/g ([1]; 30 min, ~100 μCi per mouse): 1.47 % ID/g and 2.50 % ID/g | Blood % ID/g ([1]; 30 min, ~100 μCi per mouse): 9.03 % ID/g and 11.04 % ID/g | Brain % ID/g ([1]; 30 min, ~100 μCi per mouse): 0.24 % ID/g and 0.19 % ID/g | Fat % ID/g ([1]; 30 min, ~100 μCi per mouse): 0.36 % ID/g and 0.64 % ID/g | Femur % ID/g ([1]; 30 min, ~100 μCi per mouse): 2.15 % ID/g and 2.91 % ID/g | Heart % ID/g ([1]; 30 min, ~100 μCi per mouse): 4.65 % ID/g and 4.52 % ID/g | Kidney % ID/g ([1]; 30 min, ~100 μCi per mouse): 2.62 % ID/g and 2.80 % ID/g | Large intestine % ID/g ([1]; 30 min, ~100 μCi per mouse): 5.82 % ID/g and 1.74 % ID/g | Liver % ID/g ([1]; 30 min, ~100 μCi per mouse): 3.03 % ID/g and 3.36 % ID/g | Lung % ID/g ([1]; 30 min, ~100 μCi per mouse): 6.53 % ID/g and 5.82 % ID/g | Muscle % ID/g ([1]; 30 min, ~100 μCi per mouse): 2.07 % ID/g and 2.12 % ID/g | Pancreas % ID/g ([1]; 30 min, ~100 μCi per mouse): 6.54 % ID/g and 5.18 % ID/g | Salivery gland % ID/g ([1]; 30 min, ~100 μCi per mouse): 11.28 % ID/g and 16.41 % ID/g | Small intestine % ID/g ([1]; 30 min, ~100 μCi per mouse): 4.18 % ID/g and 4.54 % ID/g | Spleen % ID/g ([1]; 30 min, ~100 μCi per mouse): 2.06 % ID/g and 1.99 % ID/g | Stomach % ID/g ([1]; 30 min, ~100 μCi per mouse): 1.72 % ID/g and 1.71 % ID/g | Tumor % ID/g ([1]; 30 min, ~100 μCi per mouse): 5.57 % ID/g and 4.40 % ID/g | Bladder % ID/g Mean ([1]; 120 min, 20 μCi per mouse): 1.66 % ID/g | Blood % ID/g Mean ([1]; 120 min, 20 μCi per mouse): 5.44 % ID/g | Brain % ID/g Mean ([1]; 120 min, 20 μCi per mouse): 0.22 % ID/g | Fat % ID/g Mean ([1]; 120 min, 20 μCi per mouse): 0.56 % ID/g | Femur % ID/g Mean ([1]; 120 min, 20 μCi per mouse): 2.17 % ID/g | Heart % ID/g Mean ([1]; 120 min, 20 μCi per mouse): 3.20 % ID/g | Kidney % ID/g Mean ([1]; 120 min, 20 μCi per mouse): 2.71 % ID/g | Large intestine % ID/g Mean ([1]; 120 min, 20 μCi per mouse): 1.08 % ID/g | Liver % ID/g Mean ([1]; 120 min, 20 μCi per mouse): 2.33 % ID/g | Lung % ID/g Mean ([1]; 120 min, 20 μCi per mouse): 3.15 % ID/g | Muscle % ID/g Mean ([1]; 120 min, 20 μCi per mouse): 1.53 % ID/g | Pancreas % ID/g Mean ([1]; 120 min, 20 μCi per mouse): 3.98 % ID/g | Salivary gland % ID/g Mean ([1]; 120 min, 20 μCi per mouse): 7.20 % ID/g | Small intestine % ID/g Mean ([1]; 120 min, 20 μCi per mouse): 2.64 % ID/g | Spleen % ID/g Mean ([1]; 120 min, 20 μCi per mouse): 1.51 % ID/g | Stomach % ID/g Mean ([1]; 120 min, 20 μCi per mouse): 1.11 % ID/g | Tumor % ID/g Mean ([1]; 120 min, 20 μCi per mouse): 1.96 % ID/g | Bladder % ID/g ([1]; 120 min, 20 μCi per mouse): 0.97 % ID/g and 2.35 % ID/g | Blood % ID/g ([1]; 120 min, 20 μCi per mouse): 4.70 % ID/g and 6.19 % ID/g | Brain % ID/g ([1]; 120 min, 20 μCi per mouse): 0.32 % ID/g and 0.13 % ID/g | Fat % ID/g ([1]; 120 min, 20 μCi per mouse): 0.74 % ID/g and 0.38 % ID/g | Femur % ID/g ([1]; 120 min, 20 μCi per mouse): 1.99 % ID/g and 2.35 % ID/g | Heart % ID/g ([1]; 120 min, 20 μCi per mouse): 3.20 % ID/g and 3.21 % ID/g | Kidney % ID/g ([1]; 120 min, 20 μCi per mouse): 1.66 % ID/g and 3.77 % ID/g | Large intestine % ID/g ([1]; 120 min, 20 μCi per mouse): 0.85 % ID/g and 1.30 % ID/g | Liver % ID/g ([1]; 120 min, 20 μCi per mouse): 2.28 % ID/g and 2.43 % ID/g | Lung % ID/g ([1]; 120 min, 20 μCi per mouse): 2.65 % ID/g and 3.65 % ID/g | Muscle % ID/g ([1]; 120 min, 20 μCi per mouse): 1.58 % ID/g and 1.47 % ID/g | Pancreas % ID/g ([1]; 120 min, 20 μCi per mouse): 3.00 % ID/g and 4.96 % ID/g | Salivery gland % ID/g ([1]; 120 min, 20 μCi per mouse): 6.20 % ID/g and 8.21 % ID/g | Small intestine % ID/g ([1]; 120 min, 20 μCi per mouse): 2.55 % ID/g and 2.72 % ID/g | Spleen % ID/g ([1]; 120 min, 20 μCi per mouse): 1.54 % ID/g and 1.49 % ID/g | Stomach % ID/g ([1]; 120 min, 20 μCi per mouse): 1.00 % ID/g and 1.23 % ID/g | Tumor % ID/g ([1]; 120 min, 20 μCi per mouse): 1.67 % ID/g and 2.25 % ID/g

N#CC1CCCN1C(=O)CNC(=O)c1ccnc2ccc(OCCCNC(=O)CCc3cn(CCC(NC(=O)c4ccc([18F])nc4)C(=O)NCCNC(=O)CN4CCN(CC(=O)O)CCN(CC(=O)O)CCN(CC(=O)O)CC4)nn3)cc12 (stereo not drawn) [[^18F]Sri-07-56]
Bladder % ID/g Mean [1]: 0.99 % ID/g | Brain % ID/g Mean [1]: 0.22 % ID/g | Fat % ID/g Mean [1]: 0.89 % ID/g | Femur % ID/g Mean [1]: 1.32 % ID/g | Kidney % ID/g Mean [1]: 2.10 % ID/g | Large intestine % ID/g Mean [1]: 0.93 % ID/g | Muscle % ID/g Mean [1]: 0.90 % ID/g | Pancreas % ID/g Mean [1]: 2.18 % ID/g | Salivary gland % ID/g Mean [1]: 3.55 % ID/g | Small intestine % ID/g Mean [1]: 1.73 % ID/g | Stomach % ID/g Mean [1]: 0.86 % ID/g | Tumor % ID/g Mean [1]: 1.78 % ID/g | Bladder % ID/g [1]: 0.86 % ID/g and 1.12 % ID/g | Brain % ID/g [1]: 0.28 % ID/g and 0.16 % ID/g | Fat % ID/g [1]: 0.38 % ID/g and 1.40 % ID/g | Femur % ID/g [1]: 1.63 % ID/g and 1.01 % ID/g | Kidney % ID/g [1]: 2.24 % ID/g and 1.96 % ID/g | Large intestine % ID/g [1]: 0.90 % ID/g and 0.95 % ID/g | Muscle % ID/g [1]: 0.74 % ID/g and 1.06 % ID/g | Pancreas % ID/g [1]: 2.39 % ID/g and 1.96 % ID/g | Salivery gland % ID/g [1]: 4.40 % ID/g and 2.70 % ID/g | Small intestine % ID/g [1]: 2.06 % ID/g and 1.40 % ID/g | Stomach % ID/g [1]: 1.05 % ID/g and 0.67 % ID/g | Tumor % ID/g [1]: 1.86 % ID/g and 1.70 % ID/g | % ID/g Blood (individual mouse) [2]: 10.48 % ID/g and 7.56 % ID/g | % ID/g Heart (individual mouse) [2]: 4.72 % ID/g and 3.07 % ID/g | % ID/g Liver (individual mouse) [2]: 2.82 % ID/g and 2.25 % ID/g | % ID/g Lung (individual mouse) [2]: 5.06 % ID/g and 3.66 % ID/g | % ID/g Mean Blood [2]: 9.02 % ID/g | % ID/g Mean Heart [2]: 3.90 % ID/g | % ID/g Mean Liver [2]: 2.54 % ID/g | % ID/g Mean Lung [2]: 4.36 % ID/g | % ID/g Mean Spleen [2]: 1.91 % ID/g | % ID/g Spleen (individual mouse) [2]: 2.19 % ID/g and 1.64 % ID/g
